Experimental data from PubChem BioAssay (NCI).
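Test compounds were applied to cells in 96-well plates for 48 hours at 5 doses. Abbreviation: GI50, concentration required for 50% inhibition of growth. TGI marks complete inhibition of growth.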

Legend:
Experiment in all cases: DTP human tumour cell line panel, 48 h; in the data active = GI50 below about 0.43 µM; inactive = the rest
SK-MEL-5 melanoma = tested on: SK-MEL-5 melanoma
A549 NSCLC = tested on: A549 NSCLC
NCI-H226 lung = tested on: NCI-H226 lung
SF-295 CNS = tested on: SF-295 CNS
UACC-62 melanoma = tested on: UACC-62 melanoma
NCI-H522 lung = tested on: NCI-H522 lung
SK-MEL-28 melanoma = tested on: SK-MEL-28 melanoma
NCI-H23 lung = tested on: NCI-H23 lung
PC-3 prostate = tested on: PC-3 prostate
ACHN renal = tested on: ACHN renal
SF-268 CNS = tested on: SF-268 CNS
SR leukemia = tested on: SR leukemia
EKVX NSCLC = tested on: EKVX NSCLC
OVCAR-8 ovarian = tested on: OVCAR-8 ovarian
RXF 393 renal = tested on: RXF 393 renal
CAKI-1 renal = tested on: CAKI-1 renal
OVCAR-5 ovarian = tested on: OVCAR-5 ovarian
SK-OV-3 ovarian = tested on: SK-OV-3 ovarian
K-562 leukemia = tested on: K-562 leukemia
NCI-H460 lung = tested on: NCI-H460 lung
KM12 colon = tested on: KM12 colon
DU-145 prostate = tested on: DU-145 prostate
HS 578T breast = tested on: HS 578T breast
HOP-92 NSCLC = tested on: HOP-92 NSCLC
SF-539 CNS = tested on: SF-539 CNS
U251 CNS = tested on: U251 CNS
HOP-62 NSCLC = tested on: HOP-62 NSCLC
MALME-3M melanoma = tested on: MALME-3M melanoma
MDA-MB-435 = tested on: MDA-MB-435
COLO 205 colon = tested on: COLO 205 colon
UACC-257 melanoma = tested on: UACC-257 melanoma
SNB-75 CNS = tested on: SNB-75 CNS
SN12C renal = tested on: SN12C renal
TK-10 renal = tested on: TK-10 renal
SK-MEL-2 melanoma = tested on: SK-MEL-2 melanoma
RPMI-8226 leukemia = tested on: RPMI-8226 leukemia
BT-549 breast = tested on: BT-549 breast
OVCAR-4 ovarian = tested on: OVCAR-4 ovarian
OVCAR-3 ovarian = tested on: OVCAR-3 ovarian
UO-31 renal = tested on: UO-31 renal
NCI/ADR-RES ovarian = tested on: NCI/ADR-RES ovarian
786-0 renal = tested on: 786-0 renal
T-47D breast = tested on: T-47D breast
IGROV1 ovarian = tested on: IGROV1 ovarian
SW-620 colon = tested on: SW-620 colon
MDA-MB-231 breast = tested on: MDA-MB-231 breast
HCC-2998 colon = tested on: HCC-2998 colon
SNB-19 CNS = tested on: SNB-19 CNS
HCT-116 colon = tested on: HCT-116 colon

COC(=O)/C=C1/SC(=Nc2ccc(F)cc2)N(CCc2c[nH]c3ccc(O)cc23)C1=O
41.3 µM: TGI (SF-295 CNS)
29.6 µM: TGI (HOP-92 NSCLC)
77.3 µM: TGI (SK-MEL-5 melanoma)
58.7 µM: TGI (TK-10 renal)
8.98 µM: TGI (RXF 393 renal)
27.3 µM: TGI (U251 CNS)
9.06 µM: TGI (SK-MEL-2 melanoma)
40.1 µM: TGI (786-0 renal)
42.7 µM: TGI (SF-268 CNS)
27.7 µM: TGI (UACC-62 melanoma)
51.9 µM: TGI (SNB-19 CNS)
inactive: GI50 (SK-MEL-5 melanoma) 11.1 µM | GI50 (A549 NSCLC) 41.2 µM | GI50 (NCI-H226 lung) 4.17 µM | GI50 (SF-295 CNS) 12 µM | GI50 (UACC-62 melanoma) 4.75 µM | GI50 (NCI-H522 lung) 3.85 µM | GI50 (SK-MEL-28 melanoma) 7.34 µM | GI50 (NCI-H23 lung) 7.49 µM | GI50 (PC-3 prostate) 7.05 µM | GI50 (ACHN renal) 7.29 µM | GI50 (SF-268 CNS) 5.96 µM | GI50 (SR leukemia) 2.08 µM | GI50 (EKVX NSCLC) 20.7 µM | GI50 (OVCAR-8 ovarian) 4.45 µM | GI50 (RXF 393 renal) 2.23 µM | GI50 (CAKI-1 renal) 24.9 µM | GI50 (OVCAR-5 ovarian) > 100 µM | GI50 (SK-OV-3 ovarian) 24.4 µM | GI50 (K-562 leukemia) > 100 µM | GI50 (NCI-H460 lung) 4.71 µM | GI50 (KM12 colon) 5.56 µM | GI50 (DU-145 prostate) 5.92 µM | GI50 (HS 578T breast) 4.28 µM | GI50 (HOP-92 NSCLC) 6.21 µM | GI50 (SF-539 CNS) 6.42 µM | GI50 (U251 CNS) 4.32 µM | GI50 (HOP-62 NSCLC) 3.83 µM | GI50 (MALME-3M melanoma) 12.9 µM | GI50 (MDA-MB-435) 3.79 µM | GI50 (COLO 205 colon) > 100 µM | GI50 (UACC-257 melanoma) 9.82 µM | GI50 (SNB-75 CNS) 4.01 µM | GI50 (SN12C renal) 8.44 µM | GI50 (TK-10 renal) 14 µM | GI50 (SK-MEL-2 melanoma) 2.76 µM | GI50 (RPMI-8226 leukemia) 3.01 µM | GI50 (BT-549 breast) 3.75 µM | GI50 (OVCAR-4 ovarian) 3.37 µM | GI50 (OVCAR-3 ovarian) 4.41 µM | GI50 (UO-31 renal) 7.07 µM | GI50 (NCI/ADR-RES ovarian) 4.69 µM | GI50 (786-0 renal) 6.85 µM | GI50 (T-47D breast) 4.4 µM | GI50 (IGROV1 ovarian) 5.79 µM | GI50 (SW-620 colon) > 100 µM | GI50 (MDA-MB-231 breast) 14.8 µM | GI50 (HCC-2998 colon) > 100 µM | GI50 (SNB-19 CNS) 9.28 µM | GI50 (HCT-116 colon) 4.89 µM
> 100 µM: TGI (A549 NSCLC) | TGI (NCI-H522 lung) | TGI (SK-MEL-28 melanoma) | TGI (NCI-H23 lung) | TGI (PC-3 prostate) | TGI (ACHN renal) | TGI (SR leukemia) | TGI (EKVX NSCLC) | TGI (CAKI-1 renal) | TGI (OVCAR-5 ovarian) | TGI (SK-OV-3 ovarian) | TGI (K-562 leukemia) | TGI (NCI-H460 lung) | TGI (KM12 colon) | TGI (DU-145 prostate) | TGI (MALME-3M melanoma) | TGI (MDA-MB-435) | TGI (COLO 205 colon) | TGI (UACC-257 melanoma) | TGI (SN12C renal) | TGI (RPMI-8226 leukemia) | TGI (OVCAR-3 ovarian) | TGI (UO-31 renal) | TGI (NCI/ADR-RES ovarian) | TGI (T-47D breast) | TGI (IGROV1 ovarian) | TGI (SW-620 colon) | TGI (MDA-MB-231 breast) | TGI (HCC-2998 colon) | TGI (HCT-116 colon)
18.3 µM: TGI (SNB-75 CNS)
38.4 µM: TGI (BT-549 breast)
35.7 µM: TGI (HS 578T breast)
26.1 µM: TGI (SF-539 CNS)
19.7 µM: TGI (HOP-62 NSCLC)
22.7 µM: TGI (OVCAR-4 ovarian)
67.5 µM: TGI (OVCAR-8 ovarian)
47.4 µM: TGI (NCI-H226 lung)
